The test system of series [1] is angiogenesis in chick embryonic chorioallantoic membranes. Description: Chick chorioallantoic membrane angiogenesis assay. The series is classed as in vivo. The following applies: for inhibition of angiogenesis, in words: 3, 17, and 33 μg/mesh; for percent inhibition of angiogenesis: 24 hours. How it is done: The chick chorioallantoic membrane assay was used to assess the effects of cyclic peptides on angiogenesis (Iruela-Arispe et al., Molecular Biology of the Cell 6:327-343, 1995). Cyclic peptides were embedded in a mesh composed of vitrogen at concentrations of 3, 17, and 33 μg/mesh. The meshes were then applied to 12-day-old chick embryonic chorioallantoic membranes. After 24 hours, the effects of the peptides on angiogenesis were assessed by computer assisted morphometric analysis.
For each concentration of cyclic peptide, the percent inhibition of angiogenesis (relative to the level of angiogenesis in the absence of cyclic peptide) is provided. Assays were performed in the presence (+) or absence (−) of […] VEGF. For example, the cyclic peptide N-Ac-CHAVC-NH2 (SEQ ID NO:10) inhibited angiogenesis by 46%, 51%, and 51% at concentrations of 3, 17, and 33 μg/mesh, respectively.

Series [2] can be described thus: in vitro. Type of series: cell-based. The following applies: human. The gist of the method:
(§1)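 Cytotoxicity assessed by MTT assay and proliferation by ³H-thymidine incorporation, with peptides tested at concentrations up to 100 μM.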

Series [3] is described as follows: in vitro. The following applies: human. The series is classed as cell-based. The gist of the method: as §1
This is another data set of the same source.

Series [4] can be described thus: in vitro. Type of series: cell-based. Conditions: human. The gist of the method:
as §1
This is another data set of the same source.

Another series concerns the target T1, chick N-cadherin (Gallus gallus, UniProt P10288).
T1 construct: expressed in transfected cells; host or cells: 3T3 fibroblasts
T1 sequence (P10288 165-912): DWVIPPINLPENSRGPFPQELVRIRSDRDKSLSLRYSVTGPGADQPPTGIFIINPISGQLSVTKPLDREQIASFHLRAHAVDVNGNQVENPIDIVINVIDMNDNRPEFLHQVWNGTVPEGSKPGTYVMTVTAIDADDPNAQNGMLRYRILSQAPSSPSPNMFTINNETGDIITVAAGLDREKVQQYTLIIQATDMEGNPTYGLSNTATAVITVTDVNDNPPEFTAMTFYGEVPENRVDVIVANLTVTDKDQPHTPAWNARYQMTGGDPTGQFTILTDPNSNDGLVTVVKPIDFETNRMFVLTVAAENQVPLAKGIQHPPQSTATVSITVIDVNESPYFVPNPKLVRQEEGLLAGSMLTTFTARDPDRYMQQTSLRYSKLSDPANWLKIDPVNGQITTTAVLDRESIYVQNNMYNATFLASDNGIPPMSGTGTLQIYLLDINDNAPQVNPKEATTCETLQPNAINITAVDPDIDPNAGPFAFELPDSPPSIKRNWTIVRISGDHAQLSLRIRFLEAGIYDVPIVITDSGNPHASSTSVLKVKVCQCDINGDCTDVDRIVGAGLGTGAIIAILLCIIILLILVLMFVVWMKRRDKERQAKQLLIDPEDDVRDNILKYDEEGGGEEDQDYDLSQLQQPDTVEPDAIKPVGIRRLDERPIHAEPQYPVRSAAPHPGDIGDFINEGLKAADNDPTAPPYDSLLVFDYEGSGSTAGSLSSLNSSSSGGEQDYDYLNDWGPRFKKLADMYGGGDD
As to the kind of experiment: N-cadherin dependent neurite outgrowth of rat cerebellar neurons on N-cadherin expressing 3T3 cells (Example 14). Type of series: cell-based. Conditions: for inhibitory activity on N-cadherin dependent neurite outgrowth, in words: Tables 8 and 9, 250 or 125 μg/mL.

“Also recorded” adds a separate entry of the source. Positions of bridges follow the written chain, without caps; N, C: chain ends. Residues, ends and D or L forms follow the SMILES beside them.

The IC50 is the midpoint of a concentration-inhibition curve. Higher therefore signals lower potency. What is called inhibition is the change of the read-out against control, counted positive when it falls. As to `CC[C@H](C)[C@@H]1NC(=O)[C@H](CC(=O)O)NC(=O)[C@H](C(C)C)NC(=O)[C@H](C)NC(=O)[C@H](Cc2c[nH]cn2)NC(=O)[C@H](C)NC(=O)[C@@H](NC(C)=O)CSSC[C@@H](C(N)=O)NC1=O` (Ac-CAHAVDIC-NH2; disulfide 1-8), the “inhibition of angiogenesis, in words” value in series [1] is on record as “inhibited angiogenesis significantly”. For the same molecule, the IC50 in the series “in vitro [2]”, in the series “in vitro [3]” and in “in vitro [4]” was greater than 100 µM throughout. Also, the inhibition at 250 µg/mL against chick N-cadherin (NIH3T3, 250 μg/mL, 16-18 hours) is 89.4%. The “inhibitory activity on N-cadherin dependent neurite outgrowth, in words” value at chick N-cadherin is “reduced, but did not eliminate, the activity; also recorded: potent inhibitors of neurite outgrowth”. In addition, the “activity on N-cadherin dependent neurite outgrowth at lower concentration, in words” value on chick N-cadherin (concentrations of 125 µg/mL or below) is reported as “lost activity”.

Consider `CC(=O)N[C@H]1CSSC[C@@H](C(N)=O)NC(=O)[C@H](CC(=O)O)NC(=O)[C@H](C(C)C)NC(=O)[C@H](C)NC(=O)[C@H](Cc2c[nH]cn2)NC(=O)[C@H](C)NC1=O` [N-Ac-CAHAVDC-NH2, N-Ac-Cys-Ala-His-Ala-Val-Asp-Cys-NH2] (Ac-CAHAVDC-NH2; disulfide 1-7), for which the “inhibition of angiogenesis, in words” value in series [1] is recorded as “inhibited angiogenesis significantly”. For the same molecule, the IC50 in the series “in vitro [2]”, in “in vitro [3]” and in the series “in vitro [4]” was greater than 100 µM each time. In addition, the inhibition at 250 µg/mL at chick N-cadherin (NIH3T3, 250 μg/mL, 16-18 hours) came to 13.3 ± 8.3%. For the same molecule, the “inhibitory activity on N-cadherin dependent neurite outgrowth, in words” value on chick N-cadherin is “completely eliminated inhibitory activity”.

In general, EC50 refers to the concentration giving half of the maximal effect. Read a low EC50 as a more potent agent. `CC(=O)N[C@H]1CSSC[C@@H](C(N)=O)NC(=O)[C@H](C(C)C)NC(=O)[C@H](C)NC(=O)[C@H](Cc2c[nH]cn2)NC1=O` [N-Ac-CHAVC-NH2, N-Ac-Cys-His-Ala-Val-Cys-NH2]: the “% Inhibition of N-cadherin dependent neurite outgrowth” value on chick N-cadherin (250 μg/mL, 16-18 hours) is recorded as 68.2 ± 5.1 (4) %. In addition, the inhibition at 125 µg/mL at chick N-cadherin (NIH3T3, 125 μg/mL, 16-18 hours) worked out at 33.2%. At chick N-cadherin (NIH3T3, 250 μg/mL, 16-18 hours), the inhibition at 250 µg/mL turned out to be 68.2%. On chick N-cadherin (concentrations up to 62 μg/ml), the “effect on the N-cadherin response, in words” value is given as “no significant effect on the N-cadherin response”. The EC50 on chick N-cadherin (from dose-response curve) worked out at 220 µM.

With `CC(=O)N[C@H]1CSSC[C@@H](C(N)=O)NC(=O)[C@H](CO)NC(=O)[C@H](C(C)C)NC(=O)[C@H](C)NC(=O)[C@H](Cc2c[nH]cn2)NC1=O` [N-Ac-CHAVSC-NH2, N-Ac-Cys-His-Ala-Val-Ser-Cys-NH2] (Ac-CHAVSC-NH2; disulfide 1-6), the “percent inhibition of angiogenesis” value in series [1] (3 μg/mesh, absence (−) of 0.01 mM VEGF) is 11%; in series [1] (3 μg/mesh, presence (+) of 0.01 mM VEGF), 17%; in series [1] (17 μg/mesh, absence (−) of 0.01 mM VEGF), 12%; in series [1] (17 μg/mesh, presence (+) of 0.01 mM VEGF), 16%; in series [1] (33 μg/mesh, absence (−) of 0.01 mM VEGF), 17%; in series [1] (33 μg/mesh, presence (+) of 0.01 mM VEGF), 19%. Also, in series [1], the “inhibition of angiogenesis, in words” value is “relatively inactive”. The IC50 in the series “in vitro [2]”, in “in vitro [3]” and in the series “in vitro [4]” was greater than 100 µM each time. For the same molecule, at chick N-cadherin (NIH3T3, 250 μg/mL, 16-18 hours), the inhibition at 250 µg/mL is -2.5 ± 7.4%. In addition, on chick N-cadherin (Table 8, 250 μg/mL), the “reduction in inhibitory activity on flanking HAV with E-cadherin amino acids” value is listed as “complete”.

As to `CC(=O)N[C@H]1CSSC[C@@H](C(N)=O)NC(=O)[C@H](C(C)C)NC(=O)CNC(=O)[C@H](Cc2c[nH]cn2)NC1=O` [N-Ac-CHGVC-NH2, reference compound], on chick N-cadherin (NIH3T3, 250 μg/mL, 16-18 hours), the inhibition at 250 µg/mL was 4.8 ± 5.3%.

The values are drawn from patent publication US20030224978A1, “Compounds and methods for modulating apoptosis” (McGill University, priority 1996, published 2003).
